Columns and labels:
TK-10 = test: Antiproliferative activity against human TK10 cells assessed as growth inhibition after 48 hrs by sulforhodamine B assay; type: functional; details: TK-10, 48 h
[1] = test system: Panel NCI-60 (60 carcinoma cell lines); test: Antiproliferative activity against human NCI60 cells assessed as growth inhibition after 48 hrs by sulforhodamine B assay; type: functional
WI-38 = test: Cytotoxicity activity against human WI38 cells assessed as reduction in cell viability measured after 48 hrs by MTT assay; type: cell-based; details: WI-38, 48 h
MDA-MB-231 = test: Antiproliferative activity against human MDA-MB-231/ATCC cells assessed as growth inhibition after 48 hrs by sulforhodamine B assay; type: functional; details: MDA-MB-231, 48 h
OVCAR-3 = test: Antiproliferative activity against human OVCAR3 cells assessed as growth inhibition after 48 hrs by sulforhodamine B assay; type: functional; details: OVCAR-3, 48 h
[2] = test system: Panel NCI-60 (60 carcinoma cell lines); test: Antiproliferative activity against human NCI60 cells assessed as growth inhibition at 10 uM after 48 hrs by sulforhodamine B assay; type: functional; details: read-out: GI
RXF 393 = test: Antiproliferative activity against human RXF393 cells assessed as growth inhibition after 48 hrs by sulforhodamine B assay; type: functional; details: RXF 393, 48 h
ACHN = test: Antiproliferative activity against human ACHN cells assessed as growth inhibition after 48 hrs by sulforhodamine B assay; type: functional
A498 = test: Antiproliferative activity against human A498 cells assessed as growth inhibition after 48 hrs by sulforhodamine B assay; type: functional; details: A498, 48 h
786-0 = test: Antiproliferative activity against human 786-0 cells assessed as growth inhibition after 48 hrs by sulforhodamine B assay; type: functional; details: 786-0, 48 h
SK-OV-3 = test: Antiproliferative activity against human SKOV3 cells assessed as growth inhibition after 48 hrs by sulforhodamine B assay; type: functional; details: SK-OV-3, 48 h
NCI/ADR-RES = test: Antiproliferative activity against human NCI-ADR-RES cells assessed as growth inhibition after 48 hrs by sulforhodamine B assay; type: functional
OVCAR-8 = test: Antiproliferative activity against human OVCAR8 cells assessed as growth inhibition after 48 hrs by sulforhodamine B assay; type: functional; details: OVCAR-8, 48 h
OVCAR-4 = test: Antiproliferative activity against human OVCAR4 cells assessed as growth inhibition after 48 hrs by sulforhodamine B assay; type: functional; details: OVCAR-4, 48 h
IGROV-1 = test: Antiproliferative activity against human IGROV1 cells assessed as growth inhibition after 48 hrs by sulforhodamine B assay; type: functional; details: IGROV-1, 48 h
UACC-257 = test: Antiproliferative activity against human UACC257 cells assessed as growth inhibition after 48 hrs by sulforhodamine B assay; type: functional; details: UACC-257, 48 h
Malme-3M = test: Antiproliferative activity against human MALME-3M cells assessed as growth inhibition after 48 hrs by sulforhodamine B assay; type: functional
U-251 = test: Antiproliferative activity against human U251 cells assessed as growth inhibition after 48 hrs by sulforhodamine B assay; type: functional; details: U-251, 48 h
SNB-75 = test: Antiproliferative activity against human SNB75 cells assessed as growth inhibition after 48 hrs by sulforhodamine B assay; type: functional; details: SNB-75, 48 h
SF-295 = test: Antiproliferative activity against human SF295 cells assessed as growth inhibition after 48 hrs by sulforhodamine B assay; type: functional; details: SF-295, 48 h
SF-268 = test: Antiproliferative activity against human SF268 cells assessed as growth inhibition after 48 hrs by sulforhodamine B assay; type: functional; details: SF-268, 48 h
SW-620 = test: Antiproliferative activity against human SW620 cells assessed as growth inhibition after 48 hrs by sulforhodamine B assay; type: functional; details: SW-620, 48 h
HT-29 = test: Antiproliferative activity against human HT-29 cells assessed as growth inhibition after 48 hrs by sulforhodamine B assay; type: functional; details: HT-29, 48 h
HCT-116 [3] = test: Antiproliferative activity against human HCT116 cells assessed as growth inhibition after 48 hrs by sulforhodamine B assay; type: functional; details: HCT-116, 48 h
HCC 2998 = test: Antiproliferative activity against human HCC2998 cells assessed as growth inhibition after 48 hrs by sulforhodamine B assay; type: functional; details: HCC 2998, 48 h
NCI-H522 = test: Antiproliferative activity against human NCI-H522 cells assessed as growth inhibition after 48 hrs by sulforhodamine B assay; type: functional; details: NCI-H522, 48 h
NCI-H460 = test: Antiproliferative activity against human NCI-H460 cells assessed as growth inhibition after 48 hrs by sulforhodamine B assay; type: functional; details: NCI-H460, 48 h
NCI-H23 = test: Antiproliferative activity against human NCI-H23 cells assessed as growth inhibition after 48 hrs by sulforhodamine B assay; type: functional; details: NCI-H23, 48 h
NCI-H226 = test: Antiproliferative activity against human NCI-H226 cells assessed as growth inhibition after 48 hrs by sulforhodamine B assay; type: functional; details: NCI-H226, 48 h
HOP-62 = test: Antiproliferative activity against human HOP62 cells assessed as growth inhibition after 48 hrs by sulforhodamine B assay; type: functional; details: HOP-62, 48 h
RPMI-8226 = test: Antiproliferative activity against human RPMI8226 cells assessed as growth inhibition after 48 hrs by sulforhodamine B assay; type: functional; details: RPMI-8226, 48 h
MOLT-4 = test: Antiproliferative activity against human MOLT4 cells assessed as growth inhibition after 48 hrs by sulforhodamine B assay; type: functional; details: MOLT-4, 48 h
Hs-578T = test: Antiproliferative activity against human Hs578T cells assessed as growth inhibition after 48 hrs by sulforhodamine B assay; type: functional
BT-549 = test: Antiproliferative activity against human BT549 cells assessed as growth inhibition after 48 hrs by sulforhodamine B assay; type: functional; details: BT-549, 48 h
[4] = Haemolytic activity in human erythrocytes assessed as induction of hemolysis at 10 mM after 30 mins relative to H202; type: cell-based, Erythrocyte; details: read-out: Activity
[5] = Haemolytic activity in human erythrocytes assessed as induction of hemolysis at 5 mM after 30 mins relative to H202; type: cell-based, Erythrocyte; details: read-out: Activity
Erythrocyte = test: Haemolytic activity in human erythrocytes assessed as induction of hemolysis at 0.625 mM after 30 mins relative to H202; type: cell-based; details: erythrocyte, 0.5 h, 625 µM
[6] = Antioxidant activity assessed as DPPH radical scavenging activity incubated in dark for 30 mins by spectrophotometric method relative to control; type: functional; set-up: concentration or dose not given beside the values
[7] = Antioxidant activity assessed as DPPH radical scavenging activity incubated in dark for 30 mins by spectrophotometric method relative to ascorbic acid; type: functional
[8] = Antioxidant activity assessed as ABTS radical scavenging activity by spectrophotometric method relative to ascorbic acid; type: functional
HCT-116 [9] = test: Induction of apoptosis in human HCT116 cells assessed as increase in caspase 3 mRNA expression at 100 nM after 6 hrs hrs by SYBR green dye-based qRT-PCR analysis relative to control; type: functional
HCT-116 [10] = test: […] in CDK1 mRNA expression in human HCT116 cells at 100 nM after 6 hrs hrs by SYBR green dye-based qRT-PCR analysis relative to control; type: functional

Compound `N=C(N)c1ccc(-c2ccc(-c3cc(Cl)cc(Cl)c3)s2)s1` has a GI50 (TK-10) of 1850 nM, a GI50 [1] of 1940 nM and an LC50 [1] of 75800 nM. For the same compound, the TGI [1] was 4460 nM, the IC50 (WI-38) was 98800 nM and the GI50 (MDA-MB-231) was 1870 nM. It also gave a GI50 (OVCAR-3) of 1810 nM, an inhibition of growth at 10 µM [2] of -28.6% and a GI50 (RXF 393) of 1850 nM. The GI50 (ACHN) was 1750 nM, the GI50 (A498) was 1530 nM and the GI50 (786-0) was 1980 nM. It also gave a GI50 (SK-OV-3) of 3620 nM, a GI50 (NCI/ADR-RES) of 2060 nM and a GI50 (OVCAR-8) of 2390 nM. For the same compound, the GI50 (OVCAR-4) was 1910 nM, the GI50 (IGROV-1) was 1970 nM and the GI50 (UACC-257) was 2050 nM. It also gave a GI50 (Malme-3M) of 1850 nM, a GI50 (U-251) of 1860 nM and a GI50 (SNB-75) of 1380 nM. For the same compound, the GI50 (SF-295) was 1960 nM, the GI50 (SF-268) was 1960 nM and the GI50 (SW-620) was 1920 nM. For the same compound, the GI50 (HT-29) was 1650 nM, the GI50 (HCT-116 [3]) was 1610 nM and the GI50 (HCC 2998) was 1750 nM. The GI50 (NCI-H522) was 1910 nM, the GI50 (NCI-H460) was 2050 nM and the GI50 (NCI-H23) was 1990 nM. The GI50 (NCI-H226) was 30800 nM, the GI50 (HOP-62) was 1760 nM and the GI50 (RPMI-8226) was 2330 nM. The GI50 (MOLT-4) was 1710 nM, the GI50 (Hs-578T) was 2150 nM and the GI50 (BT-549) was 4370 nM. The hemolysis at 0.5 h, 10000 µM [4] was 17%, the hemolysis at 0.5 h, 5000 µM [5] was 6.7% and the Activity (Erythrocyte) was “Non-Toxic”. The inhibition [6] was 27.2%, the fold change (FC) [7] was 0.3 and the fold change (FC) [8] was 0.4. For the same compound, the “fold change (FC)” value (HCT-116 [9]) was 1.61 and the “fold change (FC)” value (HCT-116 [10]) was 0.21.

`N=C(N)c1ccc(-c2ccc(-c3ccc(Cl)cc3)o2)o1` gave a GI50 (TK-10) of 2070 nM, a GI50 [1] of 1810 nM and an LC50 [1] of 12600 nM. For the same compound, the TGI [1] was 3720 nM, the IC50 (WI-38) was 10100 nM and the GI50 (MDA-MB-231) was 2010 nM. For the same compound, the GI50 (OVCAR-3) was 1830 nM, the inhibition of growth at 10 µM [2] was -2.02% and the GI50 (RXF 393) was 1820 nM. The GI50 (ACHN) was 1890 nM, the GI50 (A498) was 2120 nM and the GI50 (786-0) was 1850 nM. It also gave a GI50 (SK-OV-3) of 1790 nM, a GI50 (NCI/ADR-RES) of 1800 nM and a GI50 (OVCAR-8) of 2020 nM. For the same compound, the GI50 (OVCAR-4) was 1800 nM, the GI50 (IGROV-1) was 1770 nM and the GI50 (UACC-257) was 1990 nM. The GI50 (Malme-3M) was 1910 nM, the GI50 (U-251) was 1880 nM and the GI50 (SNB-75) was 1500 nM. For the same compound, the GI50 (SF-295) was 1830 nM, the GI50 (SF-268) was 1750 nM and the GI50 (SW-620) was 1700 nM. It also gave a GI50 (HT-29) of 1680 nM, a GI50 (HCT-116 [3]) of 1900 nM and a GI50 (HCC 2998) of 1960 nM. For the same compound, the GI50 (NCI-H522) was 1730 nM, the GI50 (NCI-H460) was 1890 nM and the GI50 (NCI-H23) was 1690 nM. The GI50 (NCI-H226) was 2190 nM, the GI50 (HOP-62) was 1650 nM and the GI50 (RPMI-8226) was 2120 nM. The GI50 (MOLT-4) was 1660 nM, the GI50 (Hs-578T) was 2000 nM and the GI50 (BT-549) was 5920 nM. The hemolysis at 0.5 h, 10000 µM [4] was 97.3%, the hemolysis at 0.5 h, 5000 µM [5] was 70.7% and the Activity (Erythrocyte) was “Non-Toxic”. For the same compound, the inhibition [6] was 17.5%, the fold change (FC) [7] was 0.2 and the fold change (FC) [8] was 0.2. For the same compound, the “fold change (FC)” value (HCT-116 [9]) was 3.55 and the “fold change (FC)” value (HCT-116 [10]) was 0.93.
